Laboratory results: US10647738B2, “Xylene-based amphiphilic compound and use thereof” (Industry-University Cooperation Foundation Hanyang …, priority 2016, dated 2020)
Several values for one entry are separate records, joined by “and”; a condition that tells them apart may be missing. Equal entries are not always repeated. Entries after “also recorded” stand apart in the source; their conditions may differ.

Legend:
[1] = Critical micelle concentration by fluorescence staining with diphenylhexatriene (DPH); assay type: physicochemical; settings: aqueous solution
Protocol: While a method for measuring CMC is not particularly limited, a method widely known in the art may be used, and the measurement may be performed by, for example, a fluorescence staining method using diphenylhexatriene (DPH).
(§1) Specifically, the critical micellar concentration (CMC) was measured using fluorescence staining and diphenylhexatriene (DPH), and the hydrodynamic radii (Rh) of the micelles formed by agents were measured through a dynamic light scattering (DLS) experiment. The measured results are shown in Tables 1 and 2, compared with a conventional amphiphilic molecule (detergent), DDM.

[2] = Hydrodynamic radius and size distribution of micelles by dynamic light scattering (DLS); assay type: physicochemical
Protocol: A method for measuring the radius of a micelle is not particularly limited, but a method well known in the art may be used, and for example, the measurement may be performed using a dynamic light scattering (DLS) experiment.
as §1

[3] = target: T1, boron transporter (Bor1) (Arabidopsis thaliana, UniProt Q8VYR7); assay: Bor1 structural stability in detergent solution, CPM assay; settings: CMC+0.04 wt % and CMC+0.2 wt %; two hours at 40° C.
T1 construct: GFP-His (TEV-cleavable) (C, cleaved yes); made in house; host or cells: S. cerevisiae
Protocol: An experiment for measuring the structural stability of a boron transporter (Bor1) in an aqueous solution due to P-XMAs was performed. The Bor1 structural stability was measured using a CPM assay, and concentrations of P-XMAs and DDM were estimated by measuring relative amounts of folded proteins at CMC+0.04 wt % (a) and CMC+0.2 wt % (b) to analyze Bor1 protein stability according to the concentration of an amphiphilic molecule.
Specifically, Bor1 was expressed as a fusion protein with a C-terminal GFP-His tag in S. cerevisiae. All steps were carried out at 4° C. A Bor1-containing membrane was resuspended with PBS (pH 7.4), 100 mM NaCl, and 10% glycerol and solubilized in 1% DDM for 1 hour with gentle stirring, followed by ultracentrifugation at 200,000 g for 45 minutes. The supernatant was adjusted with 10 mM imidazole, and applied to two 5 ml Ni^2+-NTA columns pre-equilibrated with Buffer A (PBS (pH 7.4), 100 mM NaCl, 10% glycerol, 0.03% DDM) supplemented with 10 mM imidazole. The column was washed with 5 CV of Buffer A supplemented with 30 mM imidazole, and washed with 5 CV of Buffer A supplemented with 50 mM imidazole, followed by elution in Buffer A supplemented with 500 mM imidazole. […] A clear plate cover was added, and the fluorescence of each well was monitored at 40° C. for 120 minutes.

[4] = target: T2, melibiose permease (MelB) (Salmonella typhimurium, UniProt P30878); assay: MelB extraction from membranes and thermostability, SDS-PAGE and western blotting; settings: 1.5 wt % detergent, 90 minutes
T2 construct: made in house; host or cells: Salmonella typhimurium DW2 cells (ΔmelB and ΔlacZY) (so in the source); membrane preparation
Protocol: An experiment for measuring the structural stability of the Salmonella typhimurium melibiose permease (MelB) protein due to XMAs was performed. The MelB protein was extracted on a membrane using XMAs and DDM, and the amount and structure of the extracted protein were analyzed by SDS-PAGE and western blotting. A concentration of the used compound was 1.5 wt %, and the protein was extracted at a different temperature (0, 45, 55, or 65° C.) to evaluate two kinds of performance such as protein extraction efficiency and stabilization ability of the compound at the same time. Membrane samples that were not treated with XMAs or DDM were used as controls.
Specifically, MelBSt stability due to DDM and XMAs was evaluated according to the method described in the paper (P. S. Chae, et al., Nat. Methods 2010, 7, 1003-1008) written by the inventor in 2010. The protein (MelBSt) was produced using plasmid pK95ΔAHB/WT MelBSt/CH10 encoding wild-type MelB with a 10-His tag at the C-terminus and Salmonella typhimurium DW2 cells (ΔmelB and ΔlacZY). Cell growth and membrane preparation were carried out according to the method described in the paper (Nat. Commun. 2014, 5, 3009) written by A. S. Ethayathulla et al. A protein assay was performed using a Micro BCA kit (Thermo Scientific, Rockford, Ill.). To measure solubilization/stability, MelBSt-containing membrane samples (final protein concentration of 10 mg/mL) were incubated with a solubilization buffer (20 mM sodium phosphate, pH 7.5, 200 mM NaCl, 10% glycerol, 20 mM melibiose) and 1.5% (w/v) DDM, P-XMAs (P-XMA-C8, P-XMA-C9, P-XMA-C10, P-XMA-C11 and P-XMA-C12), M-XMAs (M-XMA-C11, M-XMA-C12, M-XMA-C14, M-XMA-C16 and M-XMA-C18) or O-XMAs (O-XMA-C11, O-XMA-C12, O-XMA-C14, O-XMA-C16 and O-XMA-C18) at four different temperatures (0, 45, 55 and 65° C.) for 90 minutes. Following ultracentrifugation at 355,590 g in a Beckman Optima™ MAX ultracentrifuge using a TLA-100 rotor for 45 minutes at 4° C., 20 μg proteins were separated by SDS-16% PAGE, and then immunoblotted with a Penta-His-HRP antibody (Qiagen, Germantown, Md.). MelBSt was detected using a SuperSignal West Pico chemiluminescent substrate by an ImageQuant LAS 4000 Biomolecular Imager (GE Health Care Life Sciences).

[5] = target: T3, human β2 adrenergic receptor (β2AR) (Homo sapiens, UniProt P07550); assay: mBBr-β2AR fluorescence spectrum after dilution to CMC or less; assay type: biochemical; settings: diluted with NH buffer, 30 minutes
T3 construct: made in house
Protocol: An experiment for comparing changes in protein structures of XMAs and DDM at CMC or less of an amphiphilic molecule was carried out.
Specifically, 0.5 μl of an unliganded mBB-labeled receptor solubilized in 20×CMC P-XMA-C11 or P-XMA-C12 at 50 μM was diluted with 500 μl of a NH buffer (20 mM HEPES pH 7.5, 100 mM NaCl). The protein was incubated for 30 minutes, and the mBBr spectrum was measured. The receptor solubilized in 0.1% DDM was diluted with a NH buffer, and used as a control.

T2 sequence (P30878 whole entry): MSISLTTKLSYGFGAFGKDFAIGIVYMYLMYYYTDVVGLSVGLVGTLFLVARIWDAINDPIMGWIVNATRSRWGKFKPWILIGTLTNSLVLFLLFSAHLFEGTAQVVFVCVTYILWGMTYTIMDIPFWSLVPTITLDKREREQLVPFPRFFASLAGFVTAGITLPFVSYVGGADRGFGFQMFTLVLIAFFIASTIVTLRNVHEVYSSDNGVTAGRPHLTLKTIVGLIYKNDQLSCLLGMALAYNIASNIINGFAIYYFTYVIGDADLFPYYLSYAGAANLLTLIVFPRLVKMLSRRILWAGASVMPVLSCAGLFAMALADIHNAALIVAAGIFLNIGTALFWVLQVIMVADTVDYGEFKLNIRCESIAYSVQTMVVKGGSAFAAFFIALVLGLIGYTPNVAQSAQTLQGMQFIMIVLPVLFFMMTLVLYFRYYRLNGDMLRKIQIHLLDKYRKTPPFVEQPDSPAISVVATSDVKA
T3 sequence (P07550 whole entry): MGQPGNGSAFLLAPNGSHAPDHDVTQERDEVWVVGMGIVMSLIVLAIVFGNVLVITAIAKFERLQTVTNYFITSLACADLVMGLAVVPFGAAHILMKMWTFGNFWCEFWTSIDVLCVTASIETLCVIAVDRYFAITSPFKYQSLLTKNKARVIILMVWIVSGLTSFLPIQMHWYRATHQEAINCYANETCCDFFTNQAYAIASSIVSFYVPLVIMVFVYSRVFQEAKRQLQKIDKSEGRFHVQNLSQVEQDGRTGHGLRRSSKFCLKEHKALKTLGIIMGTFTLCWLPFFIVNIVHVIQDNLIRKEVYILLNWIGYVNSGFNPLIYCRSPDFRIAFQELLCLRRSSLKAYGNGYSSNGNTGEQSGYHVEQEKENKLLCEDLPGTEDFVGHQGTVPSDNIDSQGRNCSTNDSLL
T1 sequence (Q8VYR7 whole entry, species assumed): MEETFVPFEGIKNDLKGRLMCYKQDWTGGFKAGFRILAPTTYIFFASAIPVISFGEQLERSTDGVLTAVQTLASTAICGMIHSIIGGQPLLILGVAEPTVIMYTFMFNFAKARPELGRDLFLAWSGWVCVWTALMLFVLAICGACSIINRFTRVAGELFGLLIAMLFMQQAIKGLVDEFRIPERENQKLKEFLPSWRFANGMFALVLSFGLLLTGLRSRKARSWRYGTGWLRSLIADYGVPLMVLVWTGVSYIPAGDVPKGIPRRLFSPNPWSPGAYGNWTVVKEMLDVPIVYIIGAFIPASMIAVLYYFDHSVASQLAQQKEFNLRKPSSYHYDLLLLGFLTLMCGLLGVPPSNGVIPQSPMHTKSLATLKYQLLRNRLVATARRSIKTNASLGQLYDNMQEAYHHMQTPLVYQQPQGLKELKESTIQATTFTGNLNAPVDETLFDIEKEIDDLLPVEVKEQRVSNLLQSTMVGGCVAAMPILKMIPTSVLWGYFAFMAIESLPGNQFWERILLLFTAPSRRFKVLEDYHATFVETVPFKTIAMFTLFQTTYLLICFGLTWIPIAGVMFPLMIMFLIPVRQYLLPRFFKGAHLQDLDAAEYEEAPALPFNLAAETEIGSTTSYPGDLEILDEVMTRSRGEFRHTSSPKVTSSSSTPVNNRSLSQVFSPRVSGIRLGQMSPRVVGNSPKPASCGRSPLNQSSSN

CCCCCCCCCCCCO[C@@H]1O[C@H](CO)[C@@H](O[C@H]2O[C@H](CO)[C@@H](O)[C@H](O)[C@H]2O)[C@H](O)[C@H]1O [DDM, n-dodecyl-β-D-maltopyranoside, reference compound]
CMC [1]: ~170 µM | CMC (wt %) [1]: ~0.0087 wt % | Rh (nm), hydrodynamic radius of micelles ([2]; 1.0 wt % stated for M-/O-XMAs (FIG. 37)): 3.4 nm and 3.4 ± 0.02 nm | size distribution of micelles (number of micelle sets) ([2]; FIGS. 36 and 37): one set of micelles | Bor1 structural stability (relative amount of folded protein) [3]: most instable state | MelB protein extraction efficiency ([4]; 0° C.): high protein extraction efficiency | MelB protein extraction efficiency ([4]; 45° C.): high protein extraction efficiency | MelB protein extraction / maintained solubilization ([4]; 55° C.): hardly observed; also recorded: failed to maintain the solubilization of MelB | MelB protein extraction ([4]; 65° C.): did not extract the protein | structural change of β2AR on dilution to CMC or less [5]: clear structural change due to dilution
